# Data as given in PMC8243516, “Inhibition of lysosomal phospholipase A2 predicts drug-induced phospholipidosis” (Journal of Lipid Research, 2021).
# “Also recorded” adds a separate entry of the source. Read-outs that look alike come from different tables or passages of the source.
# What was measured:
# [1] = target: T1, recombinant mouse LPLA2 (PLA2G15) (Mus musculus, UniProt Q8VEB4); assay: Transacylase activity of LPLA2 (1-O-acyl-N-acetylsphingosine synthase, cell-free liposome assay); type: biochemical; conditions: read-out: LPLA2 IC50
# T1 construct: purchased Proteos Inc. (Kalamazoo, MI)
# T1 sequence (Q8VEB4 34-412): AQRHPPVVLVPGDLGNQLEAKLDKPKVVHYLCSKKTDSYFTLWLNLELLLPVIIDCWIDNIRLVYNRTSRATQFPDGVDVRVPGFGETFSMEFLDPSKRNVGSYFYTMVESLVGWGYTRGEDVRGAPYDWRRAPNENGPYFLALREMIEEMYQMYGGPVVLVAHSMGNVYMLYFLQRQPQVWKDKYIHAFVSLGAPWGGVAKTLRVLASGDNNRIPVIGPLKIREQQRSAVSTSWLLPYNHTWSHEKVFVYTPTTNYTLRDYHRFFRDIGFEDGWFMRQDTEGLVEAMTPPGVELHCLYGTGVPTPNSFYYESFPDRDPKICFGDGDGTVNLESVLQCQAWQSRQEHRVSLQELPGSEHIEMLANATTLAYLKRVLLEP
# [2] = target: T2, LPLA2 (Mus musculus, UniProt Q8VEB4); assay: LPLA2 thermal stability measurement (SYPRO Orange Tm); type: binding; conditions: N=3 ± SD
# T2 construct: purchased Proteos Inc. (Kalamazoo, MI)
# T2 sequence (Q8VEB4 34-412): T1 sequence (Q8VEB4 34-412)
# [3] = test system: MDCK cells
# [4] = target: T2, LPLA2; assay: LPLA2 esterase assay with pNPB; type: biochemical; conditions: pNPB substrate, no liposomes
# Protocol: pNPB was used to directly measure the activity of LPLA2. pNPB is a water-soluble substrate that can directly access the catalytic site in the absence of liposomes ([25]). A reaction mixture of pNPB (0.2 mM) and cationic amphiphilic compounds at varying concentrations in sodium citrate buffer (pH 4.5) was prepared and prewarmed to 37°C for 5 min in a total volume of 500 μl. The reaction was initiated by the addition of recombinant LPLA2 (5 μg). At predetermined times, 120 μl of the reaction mixture was transferred to a tube containing 120 μl of 0.2 M NaHCO3 and kept on ice. The cold reaction product was subsequently warmed to 37°C, and the absorbance of the reaction product, p-nitrophenoxide, was measured at 400 nm with a Beckman Du-640 spectrophotometer.
# [5] = target: T3, LPLA2 binding to DOPC/sulfatide liposomes (Mus musculus, UniProt Q8VEB4); assay: Liposome LPLA2 cosedimentation assay; conditions: 150,000 g
# T3 construct: purchased Proteos Inc. (Kalamazoo, MI)
# T3 sequence (Q8VEB4 34-412): T1 sequence (Q8VEB4 34-412)
# [6] = test system: MDCK cells; assay: LipidTOX red particle quantification by fluorescence microscopy; type: cell-based
# [7] = target: T2, LPLA2; assay: LPLA2 transacylation activity toward p-NPB (1-O-butanoyl-N-acetylsphingosine formation); type: biochemical; conditions: 250 nM fosinopril; LPLA2, N-acetylsphingosine and p-NPB as monodispersion
# [8] = cited from earlier work
# [9] = test system: MDCK cells; assay: Screening phospholipidosis assay (LipidTOX Red / NucBlue Live fluorescence ratio); conditions: LipidTOX Red to NucBlue Live fluorescence ratio, 24 h, 15 μM
# [10] = test system: phospholipidosis; conditions: phospholipidosis reported in vivo, species codes; Refs of Table 1; cited from earlier work
# [11] = 1-O-acyl N-acetylsphingosine synthase activity, pH 4.5, DOPC/sulfatide liposomes
# [12] = LPLA2 dependent 1-O-acyl N-acetylsphingosine synthase activity
SMILES,"IC50 [1, 11] [µM]","IC50 [1, 12] [µM]","(ΔTm)c-(ΔTm)d, difference in melting temperature of LPLA2 alone or in the presence of drug [2] [°C]",Ratio (15 μM) [3],Ratio (15 μM) [9],further results
"Cc1ccc2c(Cl)cc(Cl)c(O)c2n1 [5,7 Dichloro-8-hydroxy-2-methyl quinolone]",1180,1180,1.88 ± 0.9,0.29,,
CC1(C)[C@@H](O)CC[C@]2(C)[C@H]3C(=O)C=C4[C@@H]5C[C@@](C)(C(=O)O)CC[C@]5(C)CC[C@@]4(C)[C@]3(C)CC[C@@H]12 [18 Beta-glycyrrhetinic acid],,2430,1.88 ± 0.6,0.4,,
C[C@H]1[C@H]2CC[C@H]3[C@@H]4CC=C5C[C@@H](N(C)C)CC[C@]5(C)[C@H]4CC[C@]23CN1C [Conessin],,31.3,0.20 ± 01,1.08,,
CCC(=O)O[C@@H](O[P@](=O)(CCCCc1ccccc1)CC(=O)N1C[C@H](C2CCCCC2)C[C@H]1C(=O)O)C(C)C [Fosinopril],0.18,0.181,-0.90 ± 0.1,,0.67,"IC50 [1]: 0.18 µM; Inhibition of soluble esterase activity of LPLA2 [4]: no inhibition; Cosedimentation of liposomes and recombinant LPLA2 [5]: partially inhibited; Percent area ([6]; 325 nM): increases; Increase in LipidTOX Red particle number versus controls ([6]; 325 nM, 24 h): ~20 fold; LipidTOX Red staining ([6]; 24 h, versus non-treated control): significant increase; Cell number ([6]; versus non-treated control): No change; LipidTOX Red particle number (in words) ([6]; versus non-treated control): significant increase; also recorded: significantly increased; Mean fluorescence intensity (MFI) ([6]; versus non-treated control): significant increase; also recorded: increases; Inhibition of 1-O-butanoyl-N-acetylsphingosine formation [7]: no inhibition; pKa (basic) ([8]; ref Pubchem and chEMBL database): -4.4"
"OC1(c2ccc(Cl)c(C(F)(F)F)c2)CCN(CCCC(c2ccc(F)cc2)c2ccc(F)cc2)CC1 [Penfluridol, 1-[4,4-bis(4-fluorophenyl)butyl]-4-[4-chloro-3-(trifluoromethyl)phenyl]piperidin-4-ol]",9.09,,0.11 ± 0.0,,0.55,pKa (basic) ([8]; ref Pubchem and chEMBL databases): 8.96; In Vivo PLD [10]: Yes
